Drawing on ChEMBL document CHEMBL5209587, “Membrane potential based assay for SLC23A1 using HEK-293 SLC23A1 OE cells” (2022), this text covers inhibition for one compound.

The experiment has as its target Solute carrier family 23 member 1 (Homo sapiens) (UniProt Q9UHI7). Put plainly: Substrate uptake and inhibition of the Na(+)/L-Ascorbic Acid Transporter 1 (SVCT1, SLC23A1) as assessed by the fluorescent FLIPR membrane potential dye in HEK-293 JumpIN-SLC23A1 cells (PubChem AID: 1794810). In kind it is functional, cell-based. Conditions: HEK293.

Solute carrier family 23 member 1 (Homo sapiens), sequence (Q9UHI7 whole entry): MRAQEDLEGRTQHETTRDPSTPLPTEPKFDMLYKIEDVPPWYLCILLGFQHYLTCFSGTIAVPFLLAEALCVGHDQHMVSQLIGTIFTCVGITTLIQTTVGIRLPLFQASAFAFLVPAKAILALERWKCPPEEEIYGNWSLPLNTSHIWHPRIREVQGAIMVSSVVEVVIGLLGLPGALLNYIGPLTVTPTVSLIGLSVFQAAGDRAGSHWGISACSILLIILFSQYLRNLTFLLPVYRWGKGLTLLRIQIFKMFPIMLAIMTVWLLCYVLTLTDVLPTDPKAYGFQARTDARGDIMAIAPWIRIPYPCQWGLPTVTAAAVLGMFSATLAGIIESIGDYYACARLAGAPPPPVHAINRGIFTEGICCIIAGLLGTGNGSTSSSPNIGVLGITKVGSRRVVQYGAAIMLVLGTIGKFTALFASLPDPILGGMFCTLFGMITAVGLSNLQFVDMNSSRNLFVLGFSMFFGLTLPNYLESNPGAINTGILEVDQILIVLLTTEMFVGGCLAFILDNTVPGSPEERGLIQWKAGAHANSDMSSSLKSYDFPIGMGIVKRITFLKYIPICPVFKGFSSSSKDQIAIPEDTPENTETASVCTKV

Consider `O=C(CCc1ccc(O)cc1)c1c(O)cc(O)cc1O`, for which the inhibition entry is “Inhibitor: Almost Complete Inhibition At A Concentration Of 300 Μm”.
